A value given as a limit tells only on which side of the number the result lay.

The IC50 is the concentration at which inhibition is half-maximal.

Chain of PLK1 (P53350 whole entry): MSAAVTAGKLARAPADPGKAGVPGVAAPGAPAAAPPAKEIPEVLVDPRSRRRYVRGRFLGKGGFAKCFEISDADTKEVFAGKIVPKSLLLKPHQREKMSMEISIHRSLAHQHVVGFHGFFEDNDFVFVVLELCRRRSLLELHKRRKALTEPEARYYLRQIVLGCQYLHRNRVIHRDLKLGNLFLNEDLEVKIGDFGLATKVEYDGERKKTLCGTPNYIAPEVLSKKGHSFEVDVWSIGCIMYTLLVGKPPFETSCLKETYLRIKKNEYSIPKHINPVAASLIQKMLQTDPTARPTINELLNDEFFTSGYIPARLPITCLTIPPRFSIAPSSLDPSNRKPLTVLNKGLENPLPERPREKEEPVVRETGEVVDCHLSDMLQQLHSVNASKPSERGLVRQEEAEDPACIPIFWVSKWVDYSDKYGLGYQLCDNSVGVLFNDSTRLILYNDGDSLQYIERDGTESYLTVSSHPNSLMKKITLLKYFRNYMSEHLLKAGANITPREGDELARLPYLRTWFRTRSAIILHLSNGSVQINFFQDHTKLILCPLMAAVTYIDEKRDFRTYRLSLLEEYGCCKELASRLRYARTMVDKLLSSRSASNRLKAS

The first experiment concerns the target PLK1 (Homo sapiens, UniProt P53350). In words: PLK1 protein kinase assay (CDC25C phosphorylation, [γ-32P]-ATP). Format: biochemical. As to conditions: Table 1; read-out: PLK1 IC50.
For `COc1cc(C(=O)NC2CCN(C)CC2)ccc1Nc1ncc2c(n1)N(C1CCCCC1)CCC(=O)N2` [compound 39, 4-(9-Cyclohexyl-6-oxo-6,7,8,9-tetrahydro-5H-pyrimido[4,5-b][1,4]diazepin-2-ylamino)-3-methoxy-N-(1-methyl-piperidin-4-yl)-benzamide], the IC50 was less than 10000 nM.

The same experiment, now with this note: Table 2, PLK1 IC50; class symbols; read-out: PLK1 IC50.
Take `CCC1CN(C2CCCC2)c2nc(Nc3ccc(C(=O)NC4CCN(C)CC4)cc3OC)ncc2N(C)C1=O` (stereo not drawn) [compound 40, 4-(9-Cyclopentyl-7-ethyl-5-methyl-6-oxo-6,7,8,9-tetrahydro-5H-pyrimido[4,5-b][1,4]diazepin-2-ylamino)-3-methoxy-N-(1-methyl-piperidin-4-yl)-benzamide]: the IC50 is less than 100 nM. Still for that read-out and setting: in the case of `COc1cccc(N2CCC(=O)N(C)c3cnc(Nc4ccc(C(=O)NC5CCN(C)CC5)cc4OC)nc32)c1` [compound 48, 3-Methoxy-4-[9-(3-methoxy-phenyl)-5-methyl-6-oxo-6,7,8,9-tetrahydro-5H-pyrimido[4,5-b][1,4]diazepin-2-ylamino]-N-(1-methyl-piperidin-4-yl)-benzamide] it was less than 10000 nM; in that of `COc1cc(C(=O)NC2CCN(C)CC2)ccc1Nc1ncc2c(n1)N(c1ccccc1F)CCC(=O)N2C` [compound 52, 4-[9-(2-Fluoro-phenyl)-5-methyl-6-oxo-6,7,8,9-tetrahydro-5H-pyrimido[4,5-b][1,4]diazepin-2-ylamino]-3-methoxy-N-(1-methyl-piperidin-4-yl)-benzamide], less than 1000 nM.

For `CCOc1cc(C(=O)NC2CCN(C)CC2)ccc1Nc1ncc2c(n1)N(C1CCCC1)CCC(=O)N2C` [compound 59, 4-(9-Cyclopentyl-5-methyl-6-oxo-6,7,8,9-tetrahydro-5H-pyrimido[4,5-b][1,4]diazepin-2-ylamino)-3-ethoxy-N-(1-methyl-piperidin-4-yl)-benzamide], the IC50 was less than 1000 nM. With `COc1ccccc1Nc1ncc2c(n1)N(C1CCCC1)CCC(=O)N2C` [compound 60, 9-Cyclopentyl-2-(2-methoxy-phenylamine)-5-methyl-5,7,8,9-tetrahydro-pyrimido[4,5-b][1,4]diazepin-6-one], the IC50 was less than 1000 nM. The same measure, in the same setting: for `CN1C(=O)CCN(C2CCCC2)c2nc(NCc3ccccc3)ncc21` [compound 62, 2-Benzylamino-9-cyclopentyl-5-methyl-5,7,8,9-tetrahydro-pyrimido[4,5-b][1,4]diazepin-6-one] the value was less than 1000 nM; for `COc1cc(C(=O)NC2CCN(C)CC2)ccc1Nc1ncc2c(n1)N(CC1CC1)CCC(=O)N2C` [compound 65, 4-(9-Cyclopropylmethyl-5-methyl-6-oxo-6,7,8,9-tetrahydro-5H-pyrimido[4,5-b][1,4]diazepin-2-ylamino)-3-methoxy-N-(1-methyl-piperidin-4-yl)-benzamide], less than 100 nM.

For `CCCCN1CCC(=O)N(C)c2cnc(Nc3ccc(C(=O)NC4CCN(C)CC4)cc3OC)nc21` [compound 66, 4-(9-Butyl-5-methyl-6-oxo-6,7,8,9-tetrahydro-5H-pyrimido[4,5-b][1,4]diazepin-2-ylamino)-3-methoxy-N-(1-methyl-piperidin-4-yl)-benzamide], the IC50 was less than 1000 nM. Regarding `COc1cc(C(=O)NC2CCN(C)CC2)ccc1Nc1ncc2c(n1)N(C(C)C)CCC(=O)N2C` [compound 67, 4-(9-Isopropyl-5-methyl-6-oxo-6,7,8,9 tetrahydro-5H-pyrimido[4,5-b][1,4]diazepin-2-ylamino)-3-methoxy-N-(1-methyl-piperidin-4-yl)-benzamide], the IC50 was less than 100 nM. Regarding `COc1cc(C(=O)NC2CCN(C)CC2)ccc1Nc1ncc2c(n1)N(CCC(C)C)CCC(=O)N2C` [compound 68, 3-Methoxy-4-[5-methyl-9-(3-methyl-butyl)-6-oxo-6,7,8,9-tetrahydro-5H-pyrimido[4,5-b][1,4]diazepin-2-ylamino]-N-(1-methyl-piperidin-4-yl)-benzamide], the IC50 was less than 1000 nM. On to `COc1cc(C(=O)NC2CCN(C)CC2)ccc1Nc1ncc2c(n1)N(CC1CCCC1)CCC(=O)N2C` [compound 69, 4-(9-Cyclopentylmethyl-5-methyl-6-oxo-6,7,8,9-tetrahydro-5H-pyrimido[4,5-b][1,4]diazepin-2-ylamino)-3-methoxy-N-(1-methyl-piperidin-4-yl)-benzamide], for which the IC50 is less than 1000 nM.

`COc1ccc(Nc2ncc3c(n2)N(C2CCCC2)CCC(=O)N3C)c(OC)c1` [compound 71, 9-Cyclopentyl-2-(2,4-dimethoxy-phenylamino)-5-methyl-5,7,8,9-tetrahydro-pyrimido[4,5-b][1,4]diazepin-6-one]: the IC50 is less than 100 nM. For the molecule `COc1ccc(CNc2ncc3c(n2)N(C2CCCC2)CCC(=O)N3C)cc1` [compound 92, 9-Cyclopentyl-2-(4-methoxy-benzylamino)-5-methyl-5,7,8,9-tetrahydro-pyrimido[4,5-b][1,4]diazepin-6-one], the IC50 was less than 10000 nM.

On to `CN1C(=O)CCN(C2CCCC2)c2nc(NCc3cccs3)ncc21` [compound 94, 9-Cyclopentyl-5-methyl-2-[(thiophen-2-ylmethyl)-amino]-5,7,8,9-tetrahydro-pyrimido[4,5-b][1,4]diazepin-6-one], for which the IC50 is less than 10000 nM. Same read-out and setting: in the case of `COc1cc(C(=O)Nc2ccccc2)ccc1Nc1ncc2c(n1)N(C1CCCC1)CCC(=O)N2C` [compound 95, 4-(9-Cyclopentyl-5-methyl-6-oxo-6,7,8,9-tetrahydro-5H-pyrimido[4,5-b][1,4]diazepin-2-ylamino)-3-methoxy-N-phenyl-benzamide] it was less than 10000 nM. Regarding `CN1C(=O)CCN(C2CCCC2)c2nc(Nc3cccc4cc[nH]c34)ncc21` [compound 98, 9-Cyclopentyl-2-(1H-indol-7-ylamino)-5-methyl-5,7,8,9-tetrahydro-pyrimido[4,5-b][1,4]diazepin-6-one], the IC50 is less than 1000 nM. On the same count and under the same terms, in the case of `COc1cc(C(=O)NC2CCN(C)CC2)ccc1Nc1ncc2c(n1)N(C(C)C)CC1(CC1)C(=O)N2C` [compound 99, 4-(9-Isopropyl-5-methyl-6-oxo-6,7,8,9-tetrahydro-5H-spiro[pyrimido[4,5-b][1,4]diazepin-3,1′-cyclopropane]-2-ylamino)-3-methoxy-N-(1-methyl-piperidin-4-yl)-benzamide] it was less than 100 nM. `COc1cc(C(=O)NC2CCN(C)CC2)ccc1Nc1ncc2c(n1)N(C1CCCC1)CC1(CCC1)C(=O)N2C` [compound 100, 4-(9-Cyclopentyl-5-methyl-6-oxo-6,7,8,9-tetrahydro-5H-spiro[pyrimido[4,5-b][1,4]diazepin-3,1′-cyclobutane]-2-ylamino)-3-methoxy-N-(1-methyl-piperidin-4-yl)-benzamide]: the IC50 was less than 100 nM.

For `COc1cc(C(=O)NC2CCN(C)CC2)ccc1Nc1ncc2c(n1)N(C1CCCC1)CC1(CCCC1)C(=O)N2C` [compound 101, 4-(9-Cyclopentyl-5-methyl-6-oxo-6,7.8,9-tetrahydro-5H-spiro[pyrimido[4,5-b][1,4]diazepin-3,1′-cyclopentane]-2-ylamino)-3-methoxy-N-(1-methyl-piperidin-4-yl)-benzamide], the IC50 was less than 1000 nM. As to `C=CCN1CCC(=O)N(C)c2cnc(Nc3ccc(C(=O)NC4CCN(C)CC4)cc3OC)nc21` [compound 102, 4-(9-Allyl-5-methyl-6-oxo-6,7,8,9-tetrahydro-5H-pyrimido[4,5-b][1,4]diazepin-2-ylamino)-3-methoxy-N-(1-methyl-piperidin-4-yl)-benzamide], the IC50 is less than 1000 nM. Regarding `CN1C(=O)CCN(C2CCCC2)c2nc(NCc3ccsc3)ncc21` [compound 106, 9-Cyclopentyl-5-methyl-2-[(thiophen-3-ylmethyl)-amino]-5,7,8,9-tetrahydro-pyrimido[4,5-b][1,4]diazepin-6-one], the IC50 is less than 10000 nM. In the case of `CN1C(=O)CCN(C2CCCC2)c2nc(NCc3ccoc3)ncc21` [compound 107, 9-Cyclopentyl-2-[(furan-3-ylmethyl)-amino]-5-methyl-5,7,8,9-tetrahydro-pyrimido[4,5-b][1,4]diazepin-6-one], the IC50 is less than 10000 nM. For `COc1cc(C(=O)NC2CCN(C)CC2)ccc1Nc1ncc2c(n1)N(C)CCC(=O)N2C` [compound 111, 4-(5,9-Dimethyl-6-oxo-6,7,8,9-tetrahydro-5H-pyrimido[4,5-b][1,4]diazepin-2-ylamino)-3-methoxy-N-(1-methyl-piperidin-4-yl)-benzamide], the IC50 is less than 1000 nM. As for `CNC(=O)c1ccc(Nc2ncc3c(n2)N(C)CCC(=O)N3C)c(OC)c1` [compound 112, 4-(5,9-Dimethyl-6-oxo-6,7,8,9-tetrahydro-5H-pyrimido[4,5-b][1,4]diazepin-2-ylamino)-3-methoxy-N-methyl-benzamide], the IC50 was less than 10000 nM. On the same count and under the same terms, in the case of `CNC(=O)c1ccc(Nc2ncc3c(n2)N(C(C)C)CC2(CC2)C(=O)N3C)c(OC)c1` [compound 113, 4-(9-Isopropyl-5-methyl-6-oxo-6,7,8,9-tetrahydro-5H-spiro[pyrimido[4,5-b][1,4]diazepin-3,1′-cyclopropane]-2-ylamino)-3-methoxy-N-methyl-benzamide] it was less than 1000 nM. The same measure, in the same setting: for `CN1C(=O)CCN(C2CCCC2)c2nc(NCc3ccc4c(c3)OCCO4)ncc21` [compound 127, 9-Cyclopentyl-2-[(2,3-dihydro-benzo[1,4]dioxin-6-ylmethyl)-amino]-5-methyl-5,7,8,9-tetrahydro-pyrimido[4,5-b][1,4]diazepin-6-one] the value was less than 10000 nM.

Turning to `CN1C(=O)CCN(C2CCCC2)c2nc(NCc3cc4ccccc4s3)ncc21` [compound 129, 2-[(Benzo[b]thiophen-2-ylmethyl)-amino]-9-cyclopentyl-5-methyl-5,7,8,9-tetrahydro-pyrimido[4,5-b][1,4]diazepin-6-one], the IC50 was less than 10000 nM. Turning to `Cc1cccc(CNc2ncc3c(n2)N(C2CCCC2)CCC(=O)N3C)c1` [compound 131, 9-Cyclopentyl-5-methyl-2-(3-methyl-benzylamino)-5,7,8,9-tetrahydro-pyrimido[4,5-b][1,4]diazepin-6-one], the IC50 was less than 10000 nM. Consider `CNC(=O)c1cccc(Nc2ncc3c(n2)N(C2CCCC2)CCC(=O)N3C)c1C` [compound 141, 3-(9-Cyctopentyl-5-methyl-6-oxo-6,7,8,9-tetrahydro-5H-pyrimido[4,5-b][1,4]diazepin-2-ylamino)-2,N-dimethyl-benzamide], for which the IC50 is less than 10000 nM.
